Ends that are not written are not given here.
Tested on: SJL female mice
Test: In vivo activity in experimental allergic encephalitis (EAE) model, pre-immunization with peptide before EAE induction
Settings: for Incidence of EAE: number of mice with clinical EAE/number of mice immunized, after two weeks EAE induced with 300 nmoles P81-100 in CFA plus pertussis toxin, observed day 9 up to 60
Procedure: The in vivo activity of the peptide compounds of formula (I) (SEQ ID NO: 1), were evaluated on four groups of SJL female mice, used at the age of 6-15 weeks. This strain of mice has been genetically selected for its ability to develop experimental allergic encephalitis (EAE).
Two groups of mice have been immunized intraperitoneally with the peptide compound of formula (I) (SEQ ID NO: 1) (300 nmoles), dissolved in 0.05 ml of physiological solution and then emulsified with 0.05 ml of incomplete Freund's adjuvant (IFA) (Sigma, Italy).
As positive and negative control, P81-100 (SEQ ID NO: 5) and IFA alone were used respectively.
After two weeks EAE was induced in all groups by challenge with 300 nmoles of P81-100 (SEQ ID NO: 5) dissolved in 0.1 ml of physiological solution and then emulsified with 0.1 ml of complete Freund's adjuvant (CFA) (Sigma, Italy).
Pertussis toxin (200 ng) (Fluka Chemie AG, Switzerland) was injected intravenously at the time of immunization and 2 days later. The role of pertussis toxin is to enhance the migration of autoreactive lymphocytes through the encephalic barrier (Bernard, et al., "J. Immunol." 114, 1537-1540, 1975).
Mice were observed daily beginning at day 9 up to 60 for clinical signs of EAE and were graded according to the following clinical scale: 1, limp tail; 2, partial hind limp paralysis; 3, complete hind limp paralysis; 4, hind and front limp paralysis; 5, moribund (Broke S. et al., "Nature", 379, 343-346, 1996). Grade 5 mice were euthanized.

[1] = 300 nmoles intraperitoneally in IFA

| Molecule | Incidence of EAE [1] | development of EAE (result in words, summary of Table 1, SJL mice treated with peptide before EAE induction) | Day of on-set (mean day of onset ± SD, 300 nmoles intraperitoneally in IFA, after two weeks EAE induced with 300 nmoles P81-100 in CFA) | Severity (mean severity of sick mice ± SD, clinical scale 1-5, 300 nmoles intraperitoneally in IFA, after two weeks EAE induced with 300 nmoles P81-100 in CFA) |
| --- | --- | --- | --- | --- |
| NGVGHGFGNGVGPGTGPGSG [Peptide I] | 0/17 | didn't develop EAE | – | – |
| CC[C@H](C)[C@H](NC(=O)[C@H](CC(N)=O)NC(=O)[C@H](CCCCN)NC(=O)[C@H](Cc1ccccc1)NC(=O)[C@H](Cc1ccccc1)NC(=O)[C@H](Cc1c[nH]cn1)NC(=O)[C@@H](NC(=O)[C@@H](NC(=O)[C@@H]1CCCN1C(=O)[C@@H](N)CC(N)=O)C(C)C)C(C)C)C(=O)N[C@H](C(=O)N[C@H](C(=O)N1CCC[C@H]1C(=O)N[C@@H](CCCNC(=N)N)C(=O)N[C@H](C(=O)N1CCC[C@H]1C(=O)N1CCC[C@H]1C(=O)N1CCC[C@H]1C(=O)N[C@@H](CO)C(=O)N[C@@H](CCC(N)=O)C(=O)O)[C@@H](C)O)[C@@H](C)O)C(C)C [Peptide P81-100] | 2/17 | – | 33±4.24 | 1.0±0 |

Source: EP1165610B1, “PEPTIDE USEFUL IN TREATING MULTIPLE SCLEROSIS AND A PHARMACEUTICAL COMPOSITION COMPRISING THE SAME” (TECNOGEN S.C.P.A., priority 1999, dated 2006)
